From patent US20260256772A1, “BENZOTHIAZOLE COMPOUND AND USE THEREOF” (NANJING REJU THERAPEUTICS, INC., priority 2022, published 2026)

What was measured:
diabetic retinopathy = experiment: Mouse model of diabetic retinopathy (STZ), retinal Evans blue penetration assay; type: in vivo; details: intravitreal (IVT), 1 μL of 200 μM at 8 and 9 weeks after STZ, FIG. 4
Method: The efficacy of the compounds of the present disclosure was studied in a mouse model of diabetic retinopathy by multiple administrations of streptozotocin (STZ). C57BL/6J mice at 6 to 7 weeks were weighed and their baseline blood glucose was measured (Sino). STZ (Sigma-Alderich) was injected intraperitoneally into the mice at 55 mg/Kg for five consecutive days. Age-matched controls were injected with buffer only. Blood glucose was measured again one week after the last STZ injection. 1 μL of the test compound (200 μM, a suspension formulated in 0.015% polysorbate 80, 0.2% sodium phosphate, 0.75% sodium chloride, pH 7.2) was injected intravitreally into the STZ-treated diabetic C57BL/6J mice at 8 and 9 weeks after STZ administration. 10 weeks after STZ treatment, the retinal Evans blue penetration assay was performed.

[1] = system: idiopathic pulmonary fibrosis; experiment: Idiopathic pulmonary fibrosis animal model (bleomycin); type: in vivo, SD rats; details: intraperitoneal (IP) 5 mg/kg, 3 consecutive weeks, FIG. 6; for pathology scores: H&E and Masson staining; for WBC: alveolar lavage fluid; for HYP: lung tissue
Method: In this test example, the efficacy of the compounds of the present disclosure was tested on idiopathic pulmonary fibrosis in an idiopathic pulmonary fibrosis animal model. Briefly, anesthetized 6-week-old SD rats were fixed on a foam board with medical tape. Firstly, the skin on the surface of the trachea was cut with surgical scissors to fully expose the trachea, and a 100-microlitre micro-syringe containing a certain volume of bleomycin (BLM 5 mg/kg) solution drawn based on the body weight of the rat was inserted into the trachea through the oral cavity to administer by slow bolus injection. After administration of the BLM solution, the foam plate was immediately rotated and shaken to distribute the BLM solution as evenly as possible in the lung tissue. Then the skin on the surface of the trachea was sutured with surgical sutures and about 0.5 to 1.0 mL of penicillin solution was dripped onto the epidermis to prevent infection of the surgical wound. After the 7th day of modelling, the compound solution of the present disclosure was administered via intraperitoneal (IP) injection (5 mg/kg) according to the weight of the rat for 3 consecutive weeks. Rats were euthanized by carbon dioxide on Day 28, the lung tissues were removed, the left alveolar lavage fluid was collected for white blood cell (WBC) counting, the right lung tissue portion was used for hydroxyproline (HYP) assay, and the remaining lung tissues were stained for pathology by H&E staining and Masson staining.

Alzheimer's disease = Alzheimer's disease APP×PS1 transgenic mouse model; type: in vivo; details: intraperitoneal injection, 11 consecutive weeks, twice a week, FIG. 8
Method: In this test example, the efficacy of the compounds of the present disclosure was tested on Alzheimer's disease in an animal model of Alzheimer's disease. Briefly, a transgenic mouse model of APP×PS1 (purchased from Cyagen Biosciences) was selected, and the compound of the present disclosure was administered by intraperitoneal injection for 11 consecutive weeks, twice a week. Alterations in amyloid in the cerebral cortex of the mice were observed.

aging skin = experiment: Aging skin, naturally aging mouse model; type: in vivo, C57bl/6J mice; details: skin application twice a week for 6 consecutive weeks, FIG. 10
Method: In this test example, aged female C57bl/6J mice (22 months old) were used. The drug was administered by skin application twice a week for 6 consecutive weeks.

osteoarthritis = experiment: Osteoarthritis animal model; type: in vivo, mice; details: intra-articular injection, FIG. 7
Method: In this test example, the efficacy of the compounds of the present disclosure was tested on osteoarthritis in an osteoarthritis animal model.
The osteoarthritis animal model was constructed by the following steps. The mice were anesthetized with isoflurane, and fixed. The hair on the right hind limb of the mice was shaved and the skin was disinfected with alcohol, and the skin of the joints was cut. Under an optical microscope, the inside of the right knee joint was incised longitudinally with a blade, without cutting the patellar ligament. The patellar ligament was pulled to one side with constant hemostasis by compression with sterile cotton swabs such that the joint cavity was fully exposed. Saline was added dropwise in time to avoid the drying up of the joint cavity. The excess muscle tissue was gently separated with a blunt forceps to expose the meniscus ligament. The anterior cruciate ligament was found in the depth of the joint cavity and cut with a micro scissor. Then the wound was disinfected with penicillin solution, the muscle was sutured with sterile needle and thread, and the skin tissue was finally sutured. The efficacy of the drug was determined by intra-articular injection administration. At the endpoint of the test, continued pain threshold of the plantar was detected, and the bone joints were stained with safranin fast green.

senescent cells = experiment: Senescent cell killing, CellTiter-Glo cell viability; type: cell-based, human, mouse; details: activity of killing senescent cells; cell type not specified
Text: In this test example, human non-small cell lung cancer cell line (A549 cells), human embryonic lung fibroblast cell line (IMR90 cells), human retinal pigment epithelial cells (RPE cells), mouse chondrocytes, and mouse skin fibroblasts were selected. The above cells were induced by etoposide ([…]) to obtain their senescent cells. The effect of the target compounds on the viability of normal and senescent cells above was examined, thus assessing the specific killing effect of the compounds on senescent cells above.
Briefly, senescent and normal cells above were selected and plated separately (96-well plates). […] 2A to 2E.

[2] = system: wet-age-related macular degeneration; experiment: CNV animal model of wet-age-related macular degeneration; type: in vivo, mice; details: intravitreal (IVT), FIG. 5
Method: In this test example, the efficacy of the compounds of the present disclosure was tested on wet-age-related macular degeneration in a CNV animal model.
Male mice were administered 0.5% probacaine hydrochloride (Alcon) for local anesthesia, and 1% tropicamide to dilate the pupils of the mice. Laser cauterization was performed using a laser photocoagulator (Novus Varia, LUMENIS) with a slit lamp delivery system. And artificially torn adherent glass coverslips were used as contact lenses. Bleeding spots caused by lasers were not included in the statistics. In each experimental group, six mice were analyzed with four impacts per eye to overcome inherent variability.

platelets = experiment: Platelet toxicity test in mice (platelet count); type: in vivo
Method: In this test example, C57 mice were chosen to detect the effect of the target compounds on platelets.
7 to 8 weeks old […] mice were randomly divided into vehicle group and compound group. The test compound (0.5 mg/kg) or blank vehicle was administrated via single intraperitoneal injection. Blood was collected from the retroorbital venous plexus of the mice at 6 hours, and placed in a blood routine tube containing anticoagulant EDTA-K2. After shaking gently, the blood physiological indicators were measured using a hematology analyzer, with the platelet count as the target parameter for this platelet toxicity test.

Compound: Cc1c(-c2ccc(N3CCc4cccc(C(=O)Nc5nc6ccccc6s5)c4C3)nc2C(=O)N2CCN(CCO)CC2)cnn1CC12CC3CC(CC(C3)C1)C2 [RX002]
- vascular permeability, choroidal vascular leakage (diabetic retinopathy): improved
- vascular permeability, retinal vascular leakage (diabetic retinopathy): improved
- pathology scores [1]: statistically significant improvements
- WBC [1]: statistically significant improvements
- HYP [1]: statistically significant improvements
- Aβ42 pathogenic protein indicators (Alzheimer's disease): statistically significant improvements
- epidermal thickness scores of the skins (aging skin): statistically significant improvements
- pathology scores of safranin fast green staining (osteoarthritis): statistically significant improvements
- plantar mechanical pain threshold (osteoarthritis): statistically significant improvements
- IC50 (senescent cells): < 0.2 µM
- fluorescence intensity indicators [2]: statistically significant improvements

Compound: Cc1c(-c2ccc(N3CCc4cccc(C(=O)Nc5nc6ccccc6s5)c4C3)nc2C(=O)NC2CCN(Cc3ccccc3)CC2)cnn1CC12CC3CC(CC(C3)C1)C2 [RX003]
- vascular permeability, choroidal vascular leakage (diabetic retinopathy): improved
- vascular permeability, retinal vascular leakage (diabetic retinopathy): improved
- pathology scores [1]: statistically significant improvements
- WBC [1]: statistically significant improvements
- HYP [1]: statistically significant improvements
- Aβ42 pathogenic protein indicators (Alzheimer's disease): statistically significant improvements
- epidermal thickness scores of the skins (aging skin): statistically significant improvements
- pathology scores of safranin fast green staining (osteoarthritis): statistically significant improvements
- plantar mechanical pain threshold (osteoarthritis): statistically significant improvements
- fluorescence intensity indicators [2]: statistically significant improvements

Compound: Cc1c(-c2ccc(N3CCc4cccc(C(=O)Nc5nc6ccccc6s5)c4C3)nc2C(=O)N2CCNC(=O)C2)cnn1CC12CC3CC(CC(C3)C1)C2 [RX004]
- IC50 (senescent cells): 0.2 to 1 µM

Compound: Cc1c(-c2ccc(N3CCc4cccc(C(=O)Nc5nc6ccccc6s5)c4C3)nc2C(=O)NCc2ccco2)cnn1CC12CC3CC(CC(C3)C1)C2 [RX005]
- IC50 (senescent cells): > 10 µM

Compound: Cc1c(-c2ccc(N3CCc4cccc(C(=O)Nc5nc6ccccc6s5)c4C3)nc2C(=O)N2CCN(C)CC2)cnn1CC12CC3CC(CC(C3)C1)C2 [RX007]
- IC50 (senescent cells): 0.2 to 1 µM

Compound: Cc1c(-c2ccc(N3CCc4cccc(C(=O)Nc5nc6ccccc6s5)c4C3)nc2C(=O)N2CCNCC2)cnn1CC12CC3CC(CC(C3)C1)C2 [RX008]
- IC50 (senescent cells): 0.2 to 1 µM

Compound: Cc1c(-c2ccc(N3CCc4cccc(C(=O)Nc5nc6ccccc6s5)c4C3)nc2C(=O)N2CCOCC2)cnn1CC12CC3CC(CC(C3)C1)C2 [RX009]
- IC50 (senescent cells): < 0.2 µM

Compound: Cc1c(-c2ccc(N3CCc4cccc(C(=O)Nc5nc6ccccc6s5)c4C3)nc2C(=O)NCC2CCOCC2)cnn1CC12CC3CC(CC(C3)C1)C2 [RX010]
- IC50 (senescent cells): 0.2 to 1 µM

Compound: Cc1c(-c2ccc(N3CCc4cccc(C(=O)Nc5nc6ccccc6s5)c4C3)nc2C(=O)N2CCC(CO)CC2)cnn1CC12CC3CC(CC(C3)C1)C2 [RX011]
- platelet toxicity (platelet count) (platelets; mouse, in vivo, ip, 0.5 mg/kg): significantly improved
- IC50 (senescent cells): < 0.2 µM

Compound: Cc1c(-c2ccc(N3CCc4cccc(C(=O)Nc5nc6ccccc6s5)c4C3)nc2C(=O)NCCN2CCOCC2)cnn1CC12CC3CC(CC(C3)C1)C2 [RX012]
- IC50 (senescent cells): 0.2 to 1 µM

Compound: Cc1c(-c2ccc(N3CCc4cccc(C(=O)Nc5nc6ccccc6s5)c4C3)nc2C(=O)N2CCN(CCO)CC2)cnn1CC12CC3CC(CC(C3)C1)C2 [RX013]
- platelet toxicity (platelet count) (platelets; mouse, in vivo, ip, 0.5 mg/kg): significantly improved
- IC50 (senescent cells): < 0.2 µM

Compound: Cc1c(-c2ccc(N3CCc4cccc(C(=O)Nc5nc6ccccc6s5)c4C3)nc2C(=O)NCCO)cnn1CC12CC3CC(CC(C3)C1)C2 [RX014]
- IC50 (senescent cells): 1 to 10 µM

Compound: Cc1c(-c2ccc(N3CCc4cccc(C(=O)Nc5nc6ccccc6s5)c4C3)nc2C(=O)NCC(=O)O)cnn1CC12CC3CC(CC(C3)C1)C2 [RX015]
- IC50 (senescent cells): 1 to 10 µM

Compound: Cc1c(-c2ccc(N3CCc4cccc(C(=O)Nc5nc6ccccc6s5)c4C3)nc2C(=O)N2CCN(CCN)CC2)cnn1CC12CC3CC(CC(C3)C1)C2 [RX016]
- platelet toxicity (platelet count) (platelets; mouse, in vivo, ip, 0.5 mg/kg): significantly improved
- IC50 (senescent cells): 0.2 to 1 µM

Compound: Cc1c(-c2ccc(N3CCc4cccc(C(=O)Nc5nc6ccccc6s5)c4C3)nc2C(=O)N2CCC(O)CC2)cnn1CC12CC3CC(CC(C3)C1)C2 [RX019]
- platelet toxicity (platelet count) (platelets; mouse, in vivo, ip, 0.5 mg/kg): significantly improved
- IC50 (senescent cells): < 0.2 µM

Compound: Cc1c(-c2ccc(N3CCc4cccc(C(=O)Nc5nc6ccccc6s5)c4C3)nc2C(=O)NCC(=O)OCc2ccccc2)cnn1CC12CC3CC(CC(C3)C1)C2 [RX020]
- IC50 (senescent cells): > 10 µM

Compound: CCOC(=O)C(C)NC(=O)c1nc(N2CCc3cccc(C(=O)Nc4nc5ccccc5s4)c3C2)ccc1-c1cnn(CC23CC4CC(CC(C4)C2)C3)c1C (centres unmarked) [RX021]
- IC50 (senescent cells): 1 to 10 µM

Compound: CCOC(=O)CCC(NC(=O)c1nc(N2CCc3cccc(C(=O)Nc4nc5ccccc5s4)c3C2)ccc1-c1cnn(CC23CC4CC(CC(C4)C2)C3)c1C)C(=O)OCC (centres unmarked) [RX022]
- IC50 (senescent cells): > 10 µM

Compound: Cc1c(-c2ccc(N3CCc4cccc(C(=O)Nc5nc6ccccc6s5)c4C3)nc2C(=O)N2CCC(OP(=O)(O)O)CC2)cnn1CC12CC3CC(CC(C3)C1)C2 [RX302]
- IC50 (senescent cells): < 0.2 µM

Compound: Cc1c(-c2ccc(N3CCc4cccc(C(=O)Nc5nc6ccccc6s5)c4C3)nc2C(=O)N2CCN(CCOP(=O)(O)O)CC2)cnn1CC12CC3CC(CC(C3)C1)C2 [RX304]
- platelet toxicity (platelet count) (platelets; mice, 0.5 mg/kg single intraperitoneal injection, blood at 6 hours, FIG. 1): significantly improved
- IC50 (senescent cells): < 0.2 µM
